≈ marks a conversion by molar mass, not a printed value. Calls of active or inactive are those of the source. No cut-off for these calls is given here.
Key:
A-431 = assay: Cytotoxicity against human A431 cells by MTT assay; assay type: functional, cell-based
Staphylococcus aureus = assay: Antimicrobial activity against Staphylococcus aureus DSM346 by serial dilution assay; assay type: functional
Escherichia coli = assay: Antimicrobial activity against Escherichia coli harboring TolC mutant by serial dilution assay; assay type: functional
Micrococcus luteus = assay: Antimicrobial activity against Micrococcus luteus DSM 1790 by serial dilution assay; assay type: functional
KB 3-1 = assay: Cytotoxicity against human KB3-1 cells by MTT assay; assay type: functional, cell-based
Bacillus subtilis = assay: Antimicrobial activity against Bacillus subtilis DSM 10 by serial dilution assay; assay type: functional
L929 = assay: Cytotoxicity against mouse L929 cells by MTT assay; assay type: cell-based
Rhodotorula glutinis = assay: Antimicrobial activity against Rhodotorula glutinis DSM 10134 by serial dilution assay; assay type: functional, organism-based
MCF7 = assay: Cytotoxicity against human MCF7 cells by MTT assay; assay type: functional, cell-based
Mucor plumbeus = assay: Antimicrobial activity against Mucor plumbeus MUCL49355 by serial dilution assay; assay type: functional

Question: With `Cc1cc(C2=C(C(C)C)CC[C@H]2C)oc(=O)c1O` as the molecule, how does the IC50 (A-431) read?
Answer: 12 µM

Question: And the MIC (Staphylococcus aureus)?
Answer: 33.3 to 66.7 µg/mL (≈ 134 to 269 µM)

Question: And the MIC (Escherichia coli)?
Answer: 33.3 to 66.7 µg/mL (≈ 134 to 269 µM)

Question: What about the MIC (Micrococcus luteus) of the same molecule?
Answer: 33.3 to 66.7 µg/mL (≈ 134 to 269 µM)

Question: What about the IC50 (KB 3-1) of the same molecule?
Answer: 2.9 µM

Question: What about the MIC (Bacillus subtilis) of the same molecule?
Answer: 33.3 to 66.7 µg/mL (≈ 134 to 269 µM)

Question: What about the IC50 (L929) of the same molecule?
Answer: 5.6 µM

Question: And the Activity (Rhodotorula glutinis)?
Answer: Active

Question: And the IC50 (MCF7)?
Answer: 9.3 µM

Question: For `CC1=C/C(=C2/[C@H](C)CC[C@@H]2C(C)C)OC1=O`, which MIC (Staphylococcus aureus) is on record?
Answer: 33.3 to 66.7 µg/mL (≈ 151 to 303 µM)

Question: What about the MIC (Escherichia coli) of the same molecule?
Answer: 33.3 to 66.7 µg/mL (≈ 151 to 303 µM)

Question: And the MIC (Micrococcus luteus)?
Answer: 33.3 to 66.7 µg/mL (≈ 151 to 303 µM)

Question: What about the MIC (Mucor plumbeus) of the same molecule?
Answer: 8.3 µg/mL (≈ 37.7 µM)

Question: And the MIC (Bacillus subtilis)?
Answer: 33.3 to 66.7 µg/mL (≈ 151 to 303 µM)

Question: What about the Activity (Rhodotorula glutinis) of the same molecule?
Answer: Active

Question: With `Cc1cc([C@]23OC[C@@H](C)[C@H]2CC[C@H]3C)oc(=O)c1O` as the molecule, how does the Activity (Rhodotorula glutinis) read?
Answer: Active

Question: Which Activity (Rhodotorula glutinis) does the source give for `CC1=CC(=O)[C@]2(C1=O)[C@H](C)CC[C@@H]2[C@H](C)CO` here?
Answer: Active

Question: How did the MIC (Mucor plumbeus) turn out when `CC1=C/C(=C2/[C@H](C)CC[C@@H]2[C@H](C)CO)OC1=O` was run?
Answer: 8.3 µg/mL (≈ 35.1 µM)

Question: What about the Activity (Rhodotorula glutinis) of the same molecule?
Answer: Active

Question: For `CC1=C/C(=C2\[C@H](C)CC[C@@H]2[C@H](C)CO)OC1=O`, which Activity (Rhodotorula glutinis) is on record?
Answer: Active

Question: Which Activity (Rhodotorula glutinis) does the source give for `CC1=C(O)C(=O)[C@]23C(=O)[C@H]1[C@H](O)[C@@H](C)[C@H]2CC[C@H]3C` here?
Answer: Active
